Where a name gives a salt, the structure may show the parent alone. Marks after values point to notes of the source that are not given here.
What was measured:
[1] = tested on: ruminal fluid; test: In vitro fermentation in buffered goat ruminal fluid, 24 h: determination of volatile fatty acids (VFA); format: cell-based, Murciano-Granadina goats; conditions: after 24 h of incubation
Description: Determination of VFA can be based on the method previously described by Jouany, J. P., Volatile fatty acid and alcohol determination in digestive contents, silage juices, bacterial cultures and anaerobic fermentor contents; Sciences des Aliments, 2: 131-144, 1982.
For instance, samples are filtered through 0.45 μm cellulose syringe filters. One hundred microliters of an internal standard solution (0.4 g of 4-metil-valeric acid diluted in 100 ml of deionised water) and 0.1 ml of a preservative (a mix of 5% H3PO4 and 1% CIHg in deionised water) are added to 0.8 ml of filtrate. One μL from each sample is injected in a gas chromatograph (Fisons 8000 series, Milan, Italy) equipped with a split/splitless injector and FID detector. The separation of SOFA (short chain fatty acids) is made in a DB-FFAP capillary column (30 m×0.25 mm×0.25 μm of film thickness) J&W Scientific (USA). The carrier gas is N2 at a constant pressure of 120 KPa. Both detector and injector temperatures are set at 245° C. The initial oven temperature is set at 115° C. held for 5 min and increased to 230 at 8.5° C./min and finally maintained at that temperature for 10 min. SOFA are identified by comparing their retention times with a standard (46975-U de Supelco®, PA, USA).
(§1) Twelve mature Murciano-Granadina goats of similar body weight (46.97±2.5 kg BW) during late lactation were randomly split into 4 groups. Each group was fed with the same total mixed ration for 10 days. Each group included 4 g/kg of one of four types of betaine additive: • 1—Non Coated Betaine BS1 (Betafin S1, natural betaine, DuPont) • 2—Coated Betaine B52 (see preparative example 3) • 3—Coated Betaine B60 (see preparative example 4) • 4—Uncoated Betaine HCl
(§2) After an adaptation period to the diets including betaine of 10 days, ruminal fluid was obtained by means of an oesophagus probe from all goats. Ruminal fluid from goats (3 per treatment) was obtained just before feeding, transported to the laboratory and immediately strained/filtered across/through four layers of cheesecloth and mixed into an Erlenmeyer flask.
(§3) The in vitro fermentation was carried out by the following incubation process; the squeezed rumen fluid (after filtration) was mixed with Goering and Van Soest (1970) buffer solution in a 1:4 (v/v) ratio at 39° C. under continuous flow of CO2.
(§4) Samples of 1 g of total ration (0.4 g concentrate and 0.6 g alfalfa hay) plus betaine (0.015 g of each type) were accurately weighed and mixed into 125 mL bottles (ANKOM RF equipment). 50 mL of the buffered rumen fluid was added to each bottle under CO2 flow.
(§5) Bottles were sealed and incubated at 39° C. for 24 h. Gas measurements were recorded every hour, while pH was measured at the start and right after 24 h; crude fiber, digestibility, CH4 and volatile fatty acid (VFA) concentrations were determined after 24 h of incubation.

[2] = tested on: ruminal fluid; test: In vitro fermentation in buffered goat ruminal fluid, 24 h: ruminal parameters (DM, pH, residue, digestibility, N-NH3); format: cell-based, Murciano-Granadina goats; conditions: 24 h incubation
Description: as §1, §2
The in vitro fermentation was carried out by the following incubation process; the squeezed rumen fluid (after filtration) was mixed with Goering and Van Soest (1970) buffer solution in a 1:4 (v/v) ratio at 39° C. under continuous flow of CO2. […]
Bottles were sealed and incubated at 39° C. for 24 h. Gas measurements were recorded every hour, while pH was measured at the start and right after 24 h; crude fiber, digestibility, CH4 and volatile fatty acid (VFA) concentrations were determined after 24 h of incubation. […]

[3] = tested on: ruminal fluid; test: In vitro fermentation in buffered goat ruminal fluid, 24 h: gas production (methane content CH4); format: cell-based, Murciano-Granadina goats; conditions: for Gas production / mL CH4: after 24 hrs of incubation; for CH4/S / mL CH4/S / mL gas/S: per S (substrate in g DM), 24 hrs
Description: The gas content can be analysed in a Focus Gas Chromatograph (Thermo, Milan, Italy) equipped with a split/splitless injector and a flame ionization detector. The separation can be performed in a GS-Q capillary column (J&W Scientific, USA) (30 m×0.32 mm i.d.). The carrier gas may be Helium at a constant flow of 1 ml/min. The samples may be injected with a split ratio of 1/100. The initial oven temperature can be set at 50° C. held for 1 min and increased to 150 at 50° C./min and finally maintained at that temperature for 2 min. Both detector and injector temperatures can be set at 200° C. An external standard (41.21% CO2 and 58.79% CH4) may be employed for quantification of methane content in samples.
as §1, §2, §3, §4, §5

[4] = pure form, white crystalline compound; cited from earlier work

Row | Structure (SMILES) | Acetic acid [1] | Butyric acid [1] | Isobutyric acid [1] | Isovaleric acid [1] | N-Caproic acid [1] | N-Valeric acid [1] | Propionic acid [1] | Total VFA [1] | N—NH3, mg/L (ammonia nitrogen) [2] | Gas production [3] | mL CH4 [3] | CH4/S [3] | mL CH4/S [3] | mL gas/S [3] | solubility in water and lower alcohols [4]
1 | C[N+](C)(C)CC(=O)O [BHCl, Betaine HCl, reference compound] | 63.90 | 14.63^a | 0.61 | 0.95 | 0.19 | 1.64 | 18.07^b | 47.13 mmol/L | 51.13 mg/L | 210.67 mL | 10.68^a mL | 437.48 J | 11.10^a mL | 218.70 mL | –
2 | C[N+](C)(C)CC(=O)[O-] [BS1, betaine] | 63.92 | 15.26^a | 0.51 | 0.66 | 0.18 | 1.55 | 17.92^b | 43.46 mmol/L | 45.04 mg/L | 203.41 mL | 12.17^a mL | 498.54 J | 12.65^a mL | 210.33 mL | –
3 | C[N+](C)(C)CC(=O)[O-] [betaine, trimethylglycine] | – | – | – | – | – | – | – | – | – | – | – | – | – | – | readily soluble

— patent publication US20170143006A1, “Composition and Use Thereof” (DUPONT NUTRITION BIOSCIENCES APS, priority 2014, published 2017)
